Publication PMC10224427, “A Novel Flow Cytometry-Based Assay for the Identification of HCN4 CNBD Ligands” (Pharmaceuticals, 2023)
Values joined by “and” are separate entries in the source; they are usually repeats but may differ in a detail not shown here. Identical values can stand only once. “Also recorded” adds a separate entry of the source. Like-named read-outs stand apart in the source and are kept apart here.

What was measured:
[1] = biological target: T1, HCN4 C-Linker-CNBD (Homo sapiens, UniProt Q9Y3Q4); assay: Competitive binding assay, displacement of 8-Fluo-cAMP, flow cytometry
T1 construct: the passenger domain human HCN4 C-Linker-CNBD; CtxB signal peptide (N, cleaved yes); His-Tag (N); made in house; host or cells: E. coli BL21 (OmpT-deficient)
T1 sequence (Q9Y3Q4 521-723 limits assumed): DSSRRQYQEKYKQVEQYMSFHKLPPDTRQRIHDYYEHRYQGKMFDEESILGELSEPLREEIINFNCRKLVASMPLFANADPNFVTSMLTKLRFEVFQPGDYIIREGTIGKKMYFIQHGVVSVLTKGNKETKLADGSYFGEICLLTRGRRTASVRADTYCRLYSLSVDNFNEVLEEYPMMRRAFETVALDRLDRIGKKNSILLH

[2] = biological target: HCN4 MBP-C-Linker-CNBD fusion protein; design: method as in PMID 24605759; conditions: ITC; cited from earlier work
[3] = biological target: T1, HCN4 C-Linker-CNBD; assay: Flow cytometry-based ligand-binding assay, 8-Fluo-cAMP on E. coli surface-displayed protein
[4] = biological target: maltose-binding protein (MBP) (Escherichia coli, UniProt P0AEX9); conditions: up to 4 µM 8-Fluo-cAMP
[5] = biological target: purified HCN4 MBP-C-Linker-CNBD fusion protein; conditions: FP, cited from earlier work
[6] = biological target: purified HCN4 C-Linker-CNBD; conditions: cited from earlier work
[7] = biological target: purified HCN4 C-Linker-CNBD; conditions: ITC; cited from earlier work
[8] = biological target: purified HCN4 C-Linker-CNBD; conditions: SPR; cited from earlier work
[9] = ref 47, read-out: binding affinity (Kd)
[10] = 50 nM 8-Fluo-cAMP, 100 µM competitor

## Nc1ncnc2c1ccn2[C@@H]1O[C@@H]2COP(=O)(O)O[C@H]2[C@H]1O [7-CH-cAMP, 7-Deazaadenosine-3,5′-cyclic monophosphate]
[1]; 50 nM 8-Fluo-cAMP, read-out: IC50 for 8-Fluo-cAMP binding
  IC50: 230 ± 41 nM
[1]; 50 nM 8-Fluo-cAMP, read-out: inhibitory constant (Ki), calculated
  Ki: 159 ± 29 nM
[2]
  Kd: 30 nM

## Nc1ncnc2c1nc(SCCNC(=S)Nc1ccc(-c3c4ccc(=O)cc-4oc4cc(O)ccc34)c(C(=O)O)c1)n2[C@@H]1O[C@@H]2COP(=O)(O)O[C@H]2[C@H]1O [8-Fluo-cAMP, 8-(2-[Fluoresceinyl]aminoethylthio)adenosine-3′,5′-cyclic monophosphate]
[3]; mFI of cells displaying HCN4 C-Linker-CNBD
  concentration at which saturation of binding is attained: around 500 nM
[3]; surface-displayed HCN4 C-Linker-CNBD on E. coli, 1 nM-4 µM ligand, 30 min, 30 °C, read-out: dissociation constant (Kd)
  Kd: 173 ± 46 nM
[4]
  unspecific binding to surface-displayed MBP (mFI): only a marginal increase in mFI; also recorded: no unspecific binding
[5]; ref 35, read-out: binding affinity (Kd)
  Kd: 189 nM
[5]; [9]
  Kd: 111 nM
[6]; ref 9, read-out: binding affinity (Kd)
  Kd: 280 nM
[6]; [9]
  Kd: 167 nM

## Nc1ncnc2c1ncn2C1OC2COP(=O)(O)OC2C1O (stereo not drawn) [cAMP, Adenosine-3′,5′-cyclic monophosphate]
[1]
  effect on 8-Fluo-cAMP binding to the CNBD (mFI): decreased mFI
[1]; IC50 for 8-Fluo-cAMP binding
  IC50: 13000 nM and 16000 nM and 23000 nM and 27000 nM
[1]; Ki determined graphically
  Ki: 11700 nM
[1]; calculated Ki
  Ki: 8500 ± 2000 nM
[7]
  Kd: 800 nM
[8]
  Kd: 1500 nM

## NCC1(CC(=O)O)CCCCC1 [gabapentin, Gabapentin]
[1]; [10]
  effect on 8-Fluo-cAMP binding to the CNBD (mFI): no influence; also recorded: no impact

## COc1cc2c(cc1OC)CC(=O)N(CCCN(C)C[C@H]1Cc3cc(OC)c(OC)cc31)CC2 [ivabradine, Ivabradine]
[1]; [10]
  effect on 8-Fluo-cAMP binding to the CNBD (mFI): no impact on ligand binding; also recorded: no influence
